The values below come from ChEMBL document CHEMBL4422655, “Osthenol, a prenylated coumarin, as a monoamine oxidase A inhibitor with high selectivity” (Bioorg Med Chem Lett, 2019).

Broadly, the IC50 is the concentration needed to halve the response being measured. What is called Ki is the equilibrium dissociation constant of an inhibitor or competing ligand from its target.

The target of experiment [1] is T1, Amine oxidase [flavin-containing] A (Homo sapiens, UniProt P21397).
T1 sequence (P21397 whole entry): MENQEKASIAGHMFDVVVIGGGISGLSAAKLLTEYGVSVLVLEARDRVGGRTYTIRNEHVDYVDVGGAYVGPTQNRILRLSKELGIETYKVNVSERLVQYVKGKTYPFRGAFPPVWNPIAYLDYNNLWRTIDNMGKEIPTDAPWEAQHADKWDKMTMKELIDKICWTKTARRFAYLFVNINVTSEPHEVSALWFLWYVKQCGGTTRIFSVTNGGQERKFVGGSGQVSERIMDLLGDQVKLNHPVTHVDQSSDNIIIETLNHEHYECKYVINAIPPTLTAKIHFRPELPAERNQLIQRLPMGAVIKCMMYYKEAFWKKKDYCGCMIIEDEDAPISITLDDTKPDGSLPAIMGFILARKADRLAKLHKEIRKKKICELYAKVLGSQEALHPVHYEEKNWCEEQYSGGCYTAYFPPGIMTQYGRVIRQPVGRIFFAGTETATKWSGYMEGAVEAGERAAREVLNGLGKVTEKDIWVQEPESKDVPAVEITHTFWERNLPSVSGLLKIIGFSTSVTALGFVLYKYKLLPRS
The experiment can be described thus: Inhibition of human recombinant MAO-A expressed in baculovirus infected BTI insect cells using kynuramine as substrate assessed as residual activity at 10 uM after 20 mins by spectrophotometric analysis relative to control. As to conditions: read-out: Activity.

Experiment [2] has as its target T2, Amine oxidase [flavin-containing] B (Homo sapiens, UniProt P27338).
T2 sequence (P27338 whole entry): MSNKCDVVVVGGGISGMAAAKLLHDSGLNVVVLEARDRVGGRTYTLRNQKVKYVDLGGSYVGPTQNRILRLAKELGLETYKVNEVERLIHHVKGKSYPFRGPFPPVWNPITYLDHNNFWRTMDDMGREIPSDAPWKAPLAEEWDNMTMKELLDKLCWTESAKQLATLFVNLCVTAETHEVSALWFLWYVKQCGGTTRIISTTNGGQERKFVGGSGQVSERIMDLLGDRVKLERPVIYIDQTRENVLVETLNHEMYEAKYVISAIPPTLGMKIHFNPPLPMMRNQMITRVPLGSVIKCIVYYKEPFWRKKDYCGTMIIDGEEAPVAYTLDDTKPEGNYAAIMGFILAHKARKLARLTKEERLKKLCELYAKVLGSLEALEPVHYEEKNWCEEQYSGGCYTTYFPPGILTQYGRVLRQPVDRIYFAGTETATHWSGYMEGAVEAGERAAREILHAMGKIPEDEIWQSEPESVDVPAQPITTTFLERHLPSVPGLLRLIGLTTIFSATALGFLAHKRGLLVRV
Description: Inhibition of human recombinant MAO-B expressed in baculovirus infected BTI insect cells using benzylamine as substrate assessed as residual activity at 10 uM after 30 mins by spectrophotometric analysis relative to control. As to conditions: 0.5 h, read-out: Activity.

The target of experiment [3] is T2, Amine oxidase [flavin-containing] B. Description: biochemical. Format: cell-based.
In experiment [4] the target is Acetylcholinesterase (Electrophorus electricus, UniProt O42275). The experiment can be described thus: Inhibition of electric eel AChE using acetylthiocholine iodide as substrate preincubated for 15 mins followed by substrate addition by Ellman's method. A general note: Ellman's reagent forms a yellow product with free thiols.
For experiment [5], the species on record is Homo sapiens. Description: Selectivity index, ratio of IC50 for human recombinant MAO-B expressed in baculovirus infected BTI insect cells to IC50 for human recombinant MAO-A expressed in baculovirus infected BTI insect cells.
Experiment [6] addresses T3, Amine oxidase [flavin-containing] A (Rattus norvegicus, UniProt P21396).
T3 sequence (P21396 whole entry): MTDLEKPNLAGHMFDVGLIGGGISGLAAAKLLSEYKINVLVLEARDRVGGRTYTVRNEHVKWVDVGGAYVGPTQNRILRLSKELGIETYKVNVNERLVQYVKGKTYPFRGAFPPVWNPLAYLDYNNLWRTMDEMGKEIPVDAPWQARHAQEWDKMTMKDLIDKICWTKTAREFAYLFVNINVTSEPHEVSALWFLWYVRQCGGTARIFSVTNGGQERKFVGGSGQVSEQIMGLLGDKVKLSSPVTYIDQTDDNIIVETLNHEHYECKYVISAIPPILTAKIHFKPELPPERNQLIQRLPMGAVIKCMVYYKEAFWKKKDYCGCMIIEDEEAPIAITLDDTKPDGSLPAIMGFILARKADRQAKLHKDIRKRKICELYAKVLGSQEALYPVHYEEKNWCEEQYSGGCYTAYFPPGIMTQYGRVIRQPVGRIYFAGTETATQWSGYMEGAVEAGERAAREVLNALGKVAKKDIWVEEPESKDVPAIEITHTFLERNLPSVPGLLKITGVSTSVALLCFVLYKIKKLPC
Description: Inhibition of MAO-A in Sprague-Dawley rat brain mitochondrial fraction after 10 mins in presence of [14C]5-hydroxytryptamine by liquid scintillation analysis.

In experiment [7] the target is T1, Amine oxidase [flavin-containing] A. Description: biochemical.
The target is the same in experiment [8]. The experiment can be described thus: biochemical. The source holds these as a separate data set.
The target is the same in experiment [9]. The experiment can be described thus: Inhibition of human MAO-A using kynuramine as substrate after 30 mins by spectrophotometric analysis.
The species entered for experiment [10] is Homo sapiens. The experiment can be described thus: Selectivity index, ratio of IC50 for human recombinant MAO-B to IC50 for human recombinant MAO-A.
Experiment [11] concerns the target T1, Amine oxidase [flavin-containing] A. The experiment can be described thus: Inhibition of human recombinant MAO-A expressed in baculovirus infected BTI-TN-5B1-4 insect cells using p-tyramine as substrate after 15 mins by resorufin dye-based spectrometric analysis.
Experiment [12] has as its target T4, Amine oxidase [flavin-containing] A (Mus musculus, UniProt Q64133).
T4 sequence (Q64133 whole entry): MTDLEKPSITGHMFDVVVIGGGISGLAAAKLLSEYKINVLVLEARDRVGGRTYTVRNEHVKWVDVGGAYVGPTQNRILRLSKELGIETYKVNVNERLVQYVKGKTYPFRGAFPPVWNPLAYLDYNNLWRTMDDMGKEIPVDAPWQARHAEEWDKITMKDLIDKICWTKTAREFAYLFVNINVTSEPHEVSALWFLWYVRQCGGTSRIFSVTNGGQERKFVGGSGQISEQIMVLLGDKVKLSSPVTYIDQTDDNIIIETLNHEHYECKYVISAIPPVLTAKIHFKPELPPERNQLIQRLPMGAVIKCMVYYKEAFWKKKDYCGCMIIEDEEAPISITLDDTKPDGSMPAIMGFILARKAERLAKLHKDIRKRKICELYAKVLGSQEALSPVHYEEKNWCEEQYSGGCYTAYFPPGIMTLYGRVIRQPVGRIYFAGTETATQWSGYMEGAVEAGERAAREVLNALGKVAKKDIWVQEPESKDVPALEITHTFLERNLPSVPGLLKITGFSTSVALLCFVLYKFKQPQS
Description: Inhibition of MAO-A in mouse brain mitochondrial fraction using kynuramine as substrate after 30 mins by fluorometric analysis.

In experiment [13] the target is T1, Amine oxidase [flavin-containing] A. Description: Irreversible inhibition of human recombinant MAO-A expressed in baculovirus infected BTI insect cells assessed as residual activity at 0.01 uM incubated for 30 mins using kynuramine as substrate by spectrophotometric analysis relative to control. As to conditions: 0.5 h, read-out: Activity.
Experiment [14] shares this target. The experiment can be described thus: Irreversible inhibition of human recombinant MAO-A expressed in baculovirus infected BTI insect cells assessed as residual activity at 0.01 uM incubated for 30 mins followed by dialysis using kynuramine as substrate by spectrophotometric analysis relative to control. As to conditions: 0.5 h, read-out: Activity.
Experiment [15] has the same target. The experiment can be described thus: Reversible inhibition of human recombinant MAO-A expressed in baculovirus infected BTI insect cells assessed as residual activity at 2 uM incubated for 30 mins using kynuramine as substrate by spectrophotometric analysis relative to control. As to conditions: 0.5 h, read-out: Activity.
The target is the same in experiment [16]. Description: Reversible inhibition of human recombinant MAO-A expressed in baculovirus infected BTI insect cells assessed as residual activity at 2 uM incubated for 30 mins followed by dialysis using kynuramine as substrate by spectrophotometric analysis relative to control. As to conditions: 0.5 h, read-out: Activity.
Experiment [17] has the same target. The experiment can be described thus: Reversible inhibition of human recombinant MAO-A expressed in baculovirus infected BTI insect cells assessed as residual activity at 1.5 uM incubated for 30 mins using kynuramine as substrate by spectrophotometric analysis relative to control. As to conditions: 0.5 h, read-out: Activity.
Experiment [18] has the same target. Description: Reversible inhibition of human recombinant MAO-A expressed in baculovirus infected BTI insect cells assessed as residual activity at 1.5 uM incubated for 30 mins followed by dialysis using kynuramine as substrate by spectrophotometric analysis relative to control. As to conditions: 0.5 h, read-out: Activity.

Chain of Acetylcholinesterase (O42275 whole entry): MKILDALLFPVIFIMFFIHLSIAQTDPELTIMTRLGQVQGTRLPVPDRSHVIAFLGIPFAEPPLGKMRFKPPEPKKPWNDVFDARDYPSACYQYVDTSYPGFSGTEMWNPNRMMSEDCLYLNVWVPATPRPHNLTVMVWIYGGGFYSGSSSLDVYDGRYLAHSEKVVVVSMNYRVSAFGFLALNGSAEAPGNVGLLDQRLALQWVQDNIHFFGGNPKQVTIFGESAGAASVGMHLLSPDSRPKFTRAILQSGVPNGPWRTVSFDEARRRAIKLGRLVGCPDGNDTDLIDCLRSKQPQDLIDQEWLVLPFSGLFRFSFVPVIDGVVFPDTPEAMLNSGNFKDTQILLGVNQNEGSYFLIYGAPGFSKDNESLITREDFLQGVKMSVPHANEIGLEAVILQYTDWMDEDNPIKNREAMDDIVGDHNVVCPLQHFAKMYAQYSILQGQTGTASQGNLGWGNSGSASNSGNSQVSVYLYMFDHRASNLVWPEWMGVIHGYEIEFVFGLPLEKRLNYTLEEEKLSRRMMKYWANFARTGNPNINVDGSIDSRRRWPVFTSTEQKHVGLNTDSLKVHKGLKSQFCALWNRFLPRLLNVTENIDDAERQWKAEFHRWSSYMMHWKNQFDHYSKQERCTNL

Turning to `O=c1ccc2ccc3occc3c2o1` [ANGELICIN], the activity at 10 µM in [1] stood at 12%; in [2], 27.2%. Moreover, the IC50 stood at 2.73 µM in experiment [3], 25.4 µM in [4], 9 µM in [6] and 0.88 µM in experiment [7]. Also, the Ratio IC50 in experiment [5] was 3.1. The compound also yielded a Ki in [8] of 0.46 µM.
The compound `COc1cc(O)c2c(=O)c(O)c(-c3ccc(O)cc3)oc2c1` [RHAMNOCITRIN] returned an IC50 in experiment [9] of 0.051 µM. In experiment [10], the Ratio IC50 was 58.2.
As to `O=c1ccc2c(ccc3ccoc32)o1` [BAKUCHICIN], the results for the activity at 10 µM in [1] and in experiment [2] were 18.6% and 37.8%, respectively. The IC50 in [3] came to 5.44 µM; in [4], 35.7 µM; in [7] it was 1.78 µM. Also, the Ratio IC50 in [5] worked out at 3.1.
Take `Oc1ccc(/C=C/c2cc(O)cc3c2[C@@H](c2cc(O)cc(O)c2)[C@H](c2ccc(O)cc2)O3)cc1` [EPSILON-VINIFERIN]: the IC50 in [11] was found to be 19.6 µM.
As for `C=C(C)C(O)CC/C(C)=C/COc1ccc2ccc(=O)oc2c1` (stereo not drawn), half-maximal inhibition in experiment [12] (IC50) was put at 1.3 µM.
For the compound `COc1cc2ccc(=O)oc2cc1O` [SCOPOLETIN], the activity at 10 µM in experiment [1] was 97%; in [2], 97.7%. Further, the IC50 in [3] was more than 60 µM; in [4], 35.8 µM; in [7] it was more than 20 µM.
On the same counts, the results for `CC(C)=CCOc1c2ccoc2cc2oc(=O)ccc12` [ISOIMPERATORIN] are 76.2%, 78.3%, more than 60 µM, 25.6 µM and more than 20 µM.
On the same counts, the results for `O=c1ccc2cc3ccoc3cc2o1` [PSORALEN] are 71%, 78.3%, more than 60 µM, 29.5 µM and more than 20 µM.
As to `COc1ccc(-c2oc3cc(O)cc(O)c3c(=O)c2O)cc1` [KAEMPFERIDE], in [5], the Ratio IC50 came to 0.89. Besides, in experiment [7], inhibition was half-maximal at 0.19 µM (IC50).
For `C#CCN(C)CCCOc1ccc(Cl)cc1Cl` [CLORGILINE], the activity at 0.01 µM in experiment [13] came to 20.4%; in experiment [14], 23.3%.
As for `Cc1cccc(N2CC(CO)OC2=O)c1` (stereo not drawn) [TOLOXATONE], the activity at 2 µM in experiment [15] came out at 28.4%; in [16], 88.6%.
As for `CC(C)=CCc1c(O)ccc2ccc(=O)oc12` [OSTHENOL], the activity at 10 µM turned out to be 9.9% in experiment [1] and 84.7% in experiment [2]. For the same compound, the IC50 in [3] is more than 60 µM; in experiment [4] it was 25.3 µM; in experiment [7], 0.74 µM. Further, the Ratio IC50 in experiment [5] was more than 81.1. For the same compound, the activity at 1.5 µM in experiment [17] stood at 23.7%; in experiment [18] it was 90.7%. In addition, the Ki in experiment [8] was 0.26 µM.
